Read-outs that look alike come from different tables or passages of the source. Marks after values point to notes of the source that are not given here.
System: A. flavus 3357
Test: Heat-sensitizing antimicrobial bioassay (MFC) in A. flavus 3357
Format: cell-based, Aspergillus flavus
Conditions: for MFC: read-out: minimum fungicidal concentration (MFC; >99.999% fungal death)
Experimental: Antimicrobial bioassay: The heat-sensitizing effect of twenty-eight compounds (phenolic derivatives, alkyl gallates, other food additives) (0.025, 0.050, 0.075, 0.100, 0.200, 0.300, 0.400, 0.500, 0.600 or 0.700 mM) and six drugs/fungicides (1, 2, 4, 8, 16, 32, 64 ppm) (Table 2) were examined using A. flavus 3357. Two hundred μL of fungal spores (1.5×10^5 to 2.1×10^5 CFU) dispersed in PBS was transferred into individual microfuge tube (1.5 mL vol.), where (1) “control” tube contained DMSO only, while (2) “treatment” tube contained test chemical/drug at respective concentration. The tubes were then treated with mild heat (57.5° C.) or maintained at room temperature (RT; 22.0° C.) for 90 seconds. After treatments, entire volume (200 μL) from each microfuge tube was spread onto fresh recovery PDA, and plates were incubated at respective temperatures. Fungal growth/survival was monitored after 48 hrs of incubation.
As described in A. flavus 3357 test (see above), microfuge tubes were treated with mild heat (57.5° C.) or maintained at RT (22.0° C.) (90 seconds). After heat treatments, entire volume (200 μL) from each microfuge tube was spread onto fresh recovery LB agar (for bacteria) or PDA (for fungi), and plates were incubated at the optimum temperature for respective microorganisms (i.e., 35° C. for Aspergillus, 37° C. for E. coli, 28° C. for Penicillium/A. tumefaciens, respectively). The growth/survival of test microorganisms were monitored after 48 to 72 hrs of incubation.
Determination of optimum temperature and time duration for screening heat sensitizers in A. flavus 3357: For the determination of the optimum temperature and time points for screening heat sensitizers, fungal (A. flavus 3357) survivability was tested by exposing fungal spores (1.5×10^5 to 2.1×10^5 CFU) to different temperatures (50, 55, 57.5, 60, 65° C.) and time points (0.5, 1.0, 1.5, 2.0, 2.5, 3.0, 3.5, 4.0, 4.5, 5.0 min).

[1] = 57.5° C. mild heat, 90 seconds, PBS
[2] = Aspergillus flavus, 3357, 0.025 h, 22.0° C. (RT), 90 seconds, PBS
[3] = Aspergillus flavus, 3357, 0.025 h, 57.5° C. mild heat, 90 seconds, PBS

| Compound | MFC [2] [µM] | MFC [3] [µM] | other results |
| --- | --- | --- | --- |
| Cc1cc(C)nc(Nc2ccccc2)n1 [Pyrimethanil] | – | – | minimum fungicidal concentration (MFC; >99.999% fungal death) (22.0° C. (RT), 90 seconds, PBS): >64 μg/mL; ppm; minimum fungicidal concentration (MFC; >99.999% fungal death) [1]: >64 μg/mL; ppm |
| Cc1ccc(C(C)C)c(O)c1 [Thymol] | > 700 | > 700 | – |
| COC(=O)c1cc(O)c(O)c(O)c1 [Methyl gallate] | > 700 | > 700 | – |
| CC[C@H](C)C[C@H](C)CCCCCCCCC(=O)N[C@H]1C[C@@H](O)[C@@H](NCCN)NC(=O)[C@@H]2[C@@H](O)CCN2C(=O)[C@H]([C@H](O)CCN)NC(=O)[C@H]([C@H](O)[C@@H](O)c2ccc(O)cc2)NC(=O)[C@@H]2C[C@@H](O)CN2C(=O)[C@H]([C@@H](C)O)NC1=O [Caspofungin] | – | – | minimum fungicidal concentration (MFC; >99.999% fungal death) (22.0° C. (RT), 90 seconds, PBS): >64 μg/mL; ppm; minimum fungicidal concentration (MFC; >99.999% fungal death) [1]: >64 μg/mL; ppm |
| O=C(O)C=Cc1ccccc1 [Cinnamic acid] | > 700 | > 700 | – |
| Cc1ccc(C=O)c(O)c1 [2-Hydroxy-4-methylbenzaldehyde] | > 700 | > 700 | – |
| CCCCCCCCCOC(=O)c1cc(O)c(O)c(O)c1 [Nonyl gallate] | > 700 | 400 | MFC (22.0° C. (RT), 90 seconds, PBS): >700 µM; minimum fungicidal concentration (MFC; >99.999% fungal death) [1]: 400* μM |
| O=C(O)c1ccccc1 [Benzoic acid] | > 700 | – | MFC [1]: >700 µM |
| Cc1ccc(C(C)C)cc1O [Carvacrol] | > 700 | – | MFC [1]: >700 µM |
| COc1ccc(C=O)c(O)c1 [2-Hydroxy-4-methoxybenzaldehyde] | > 700 | > 700 | – |
| CCCOC(=O)c1cc(O)c(O)c(O)c1 [Propyl gallate] | > 700 | > 700 | – |
| COc1cc(CCC(C)=O)ccc1O [Vanillylacetone] | > 700 | > 700 | – |
| CCCCCCCCCCCCOS(=O)(=O)[O-].[Na+] [Sodium lauryl sulfate] | > 700 | > 700 | – |
| O=C(O)c1ccc(O)c(O)c1 [3,4-Dihydroxybenzoic acid] | > 700 | – | MFC [1]: >700 µM |
| Cc1cc(C2CC2)nc(Nc2ccccc2)n1 [Cyprodinil] | – | – | minimum fungicidal concentration (MFC; >99.999% fungal death) (22.0° C. (RT), 90 seconds, PBS): >64 μg/mL; ppm; minimum fungicidal concentration (MFC; >99.999% fungal death) [1]: >64 μg/mL; ppm |
| O=C(O)c1cc(O)c(O)c(O)c1 [Gallate] | > 700 | > 700 | – |

| Compound | MFC [2] [µM] | MFC [3] [µM] | other results |
| --- | --- | --- | --- |
| O=C(O)c1ccccc1O [Salicyllic acid] | – | – | MFC (Aspergillus flavus, 3357, 0.025 h): > 700 µM |
| COc1ccccc1O [Guaiacol] | > 700 | > 700 | – |
| O=CC=Cc1ccccc1 [Cinnamaldehyde] | > 700 | – | MFC [1]: >700 µM |
| COC(=O)N(OC)c1ccccc1COc1ccn(-c2ccc(Cl)cc2)n1 [Pyraclostrobin] | – | – | minimum fungicidal concentration (MFC; >99.999% fungal death) (22.0° C. (RT), 90 seconds, PBS): >64 μg/mL; ppm; minimum fungicidal concentration (MFC; >99.999% fungal death) [1]: >64 μg/mL; ppm |
| N#Cc1c[nH]cc1-c1cccc2c1OC(F)(F)O2 [Fludioxonil] | – | – | minimum fungicidal concentration (MFC; >99.999% fungal death) (22.0° C. (RT), 90 seconds, PBS): >64 μg/mL; ppm; minimum fungicidal concentration (MFC; >99.999% fungal death) [1]: >64 μg/mL; ppm |
| CCCCCCCCCCOC(=O)c1cc(O)c(O)c(O)c1 [Decyl gallate] | > 700 | 200 | MFC (22.0° C. (RT), 90 seconds, PBS): >700 µM; minimum fungicidal concentration (MFC; >99.999% fungal death) [1]: 200* μM |
| CCOC(=O)c1cc(O)c(O)c(O)c1 [Ethyl gallate] | > 700 | > 700 | – |
| O=Cc1ccccc1O [Salicylaldehyde] | > 700 | – | MFC [1]: >700 µM |
| COc1cc(C=O)ccc1O [Vanillin] | > 700 | > 700 | – |
| CCCCOC(=O)c1cc(O)c(O)c(O)c1 [Butyl gallate] | > 700 | > 700 | – |
| O=Cc1cccc(O)c1O [2,3-Dihydroxybenzaldehyde] | > 700 | > 700 | – |
| OO [Hydrogen peroxide] | > 700 | > 700 | – |
| COc1cc(C(=O)O)ccc1O [Vanillic acid] | > 700 | > 700 | – |
| CCC(C)n1ncn(-c2ccc(N3CCN(c4ccc(OCC5COC(Cn6cncn6)(c6ccc(Cl)cc6Cl)O5)cc4)CC3)cc2)c1=O (stereo not shown) [Itraconazole] | – | – | minimum fungicidal concentration (MFC; >99.999% fungal death) (22.0° C. (RT), 90 seconds, PBS): 64 μg/mL; ppm; minimum fungicidal concentration (MFC; >99.999% fungal death) [1]: >64 μg/mL; ppm |
| O=Cc1ccccc1 [Benzaldehyde] | > 700 | – | MFC [1]: >700 µM |
| O=C(O)c1ccc(O)cc1O [2,4-Dihydroxybenzoic acid] | > 700 | > 700 | – |
